Experimental data published in BigSolDB 2.1.

CC1(C)O[C@H]2CC(=O)OC[C@]23[C@H]2CC[C@@]4(C)[C@H](c5ccoc5)OC(=O)[C@H]5O[C@]54[C@]2(C)C(=O)C[C@@H]13
solubility (mole fraction)
Settings	283.2 K	288.2 K	293.2 K	298.2 K	303.2 K	308.2 K	313.2 K	318.2 K	323.2 K
in THF	0.00242	0.00257	0.0028	0.00309	0.00327	0.0035	0.00408	0.00458	0.00486
in acetonitrile	0.00272	0.00314	0.00349	0.00385	0.00454	0.00523	0.00628	0.00739	0.00857
in chloroform	0.00425	0.00433	0.00447	0.00458	0.00479	0.00512	0.00531	0.0057	0.00599
in ethanol	2.65e-05	2.93e-05	3.05e-05	3.53e-05	4.27e-05	5.48e-05	6.71e-05	8.49e-05	0.000101
in ethyl acetate	0.000746	0.000761	0.000801	0.00085	0.00094	0.000979	0.00101	0.00119	0.00128
in isopropanol	1.08e-05	1.25e-05	1.56e-05	1.79e-05	1.87e-05	2.25e-05	3.03e-05	3.47e-05	4.52e-05
in n-butanol	1.53e-05	1.94e-05	2.01e-05	2.64e-05	2.91e-05	3.54e-05	4.23e-05	5.62e-05	7.25e-05
in n-butyl acetate	0.000323	0.000349	0.000375	0.000413	0.000484	0.00053	0.000616	0.000646	0.00068
